Source: US4550186A, “Binuclear copper (II) carboxylates formed from amine-carboxyboranes” (Duke University, priority 1983, dated 1985)

Assays:
[1] = test system: CF1 male mice; test: Antihyperlipidemic screen in normal mice; format: in vivo, mouse; conditions: for Serum Cholesterol / Serum Triglyceride: CF1 male mice I.P.
Procedure: Compounds to be tested were suspended in 1% carboxymethylcellulose-water and administered to CF1 male mice (~25 g) intraperitoneally for 16 days or Holtzman male rats (~350 g) orally by an intubation needle for 16 days. On days 9 or 16, blood was obtained by tail vein bleeding and the serum separated by centrifugation for 3 min. The serum cholesterol levels were determined by a modification of the Liebermann-Burchard reaction as described in Ness et al, Clin. Chim. Acta, 10, 229 (1964). Serum was also collected on day 16 and the triglyceride content was determined by a commercial kit, The Fisher Hycel Triglyceride Test Kit.
Data are expressed in the Table 2-7 as percent of control ± the standard deviation. The probable significant level (P) between each test group and the control group was determined by the Student's "t" test.

[2] = Organ weights; format: in vivo, rat; conditions: for Organ Weight: 14 days 10 mg/Kg/Day, Treated
From the text: Periodic animal weights were obtained during the experiments and expressed as a percentage of the animal's weight on day 0. After dosing for 14 days with test drugs, selected organs were excised, trimmed of fat and weighed. The organ weights were expressed as a percentage of the total body weight of the animal.

[3] = Appetite / food intake; conditions: in vivo
[4] = target: deoxyribonucleic acid polymerase; test: In vitro deoxyribonucleic acid polymerase activity in isolated nuclei; format: biochemical, mouse; conditions: isolated nuclei from Ehrlich ascites cells, read-out: ID50, Deoxyribonucleic acid polymerase activity
Procedure: CF1 male mice (~30 g) were implanted with 2×10^6 Ehrlich ascites tumor cells, intraperitoneally on Day 0. Compound I was suspended by homogenation in 0.05% polysorbate.80-water and administered intraperitoneally at 10 and 20 mg/kg for 9 days to determine its effectiveness for inhibition of tumor growth. Mice were sacrificed on Day 10, and the ascites fluid was collected from the peritoneal cavity. The volume and ascrit (packed cell volume) were determined for each animal and the percent inhibition of tumor growth was calculated. For the metabolic studies, mice were treated on Days 8 and 9 with 10 mg/kg of Compound I, intraperitoneally. The animal was sacrificed on Day 10 and the ascites fluid harvested. The in vitro metabolic studies were performed at […] final concentration of Compound I.
In vitro and in vivo nuclear deoxyribonucleic acid polymerase activity was determined on isolated Ehrlich ascites cell nuclei. The incubation was that described by Sawada et al [Can. Res., 34, 3341 (1974)] except that [methyl-^3 H] deoxythymidine triphosphate (82.4 Ci/mmol) was used. The acid insoluble nucleic acid was collected on GF/F filters and counted. Nuclear ribonucleic acid polymerase activities were determined on enzymes isolated from nuclei. […] The acid insoluble ribonucleic acid was collected on nitrocellulose filters and counted.

{Cu[(CH3)3 N.BH2 CO2 ]2.(CH3)3 N.BH2 COOH} [Compound I]
Serum Cholesterol ([1]; 2.5 mg/kg, Day 9): 61 ± 5 % Control | Serum Cholesterol ([1]; 2.5 mg/kg, Day 16): 62 ± 6 % Control | Serum Triglyceride ([1]; 2.5 mg/kg, Day 16): 50 ± 6 % Control | Serum Cholesterol ([1]; 5.0 mg/kg, Day 9): 67 ± 6 % Control | Serum Cholesterol ([1]; 5.0 mg/kg, Day 16): 63 ± 5 % Control | Serum Triglyceride ([1]; 5.0 mg/kg, Day 16): 69 ± 6 % Control | Serum Cholesterol ([1]; 10.0 mg/kg, Day 9): 71 ± 6 % Control | Serum Cholesterol ([1]; 10.0 mg/kg, Day 16): 63 ± 5 % Control | Serum Triglyceride ([1]; 10.0 mg/kg, Day 16): 47 ± 5 % Control | Serum Cholesterol ([1]; 20.0 mg/kg, Day 9): 52 ± 5 % Control | Serum Cholesterol ([1]; 20.0 mg/kg, Day 16): 53 ± 4 % Control | Serum triglyceride levels reduced ([1]; mice, 2.5 mg/kg/day): greater than 50% | Serum triglyceride levels reduced ([1]; mice, 10 mg/kg/day): greater than 50% | serum triglyceride reduction ([1]; mice, 10 mg/kg/day): 53% | reduction of serum cholesterol (maximal effect) ([1]; mice, 20 mg/kg/day): 47% | Adrenal weights ([2]; after drug administration): not altered | Organ Weight ([2]; rat Adrenal): 0.031 gm | Organ Weight ([2]; rat Brain): 1.666 gm | Organ Weight ([2]; rat Chyme): 5.9333 gm | Organ Weight ([2]; rat Feces): 8.633 gm | Organ Weight ([2]; rat Heart): 1.021 gm | Organ Weight ([2]; rat Kidney): 2.167 gm | Organ Weight ([2]; rat Large Intestine): 4.233 gm | Organ Weight ([2]; rat Liver): 10.600 gm | Organ Weight ([2]; rat Lung): 1.933 gm | Organ Weight ([2]; rat Small Intestine): 6.433 gm | Organ Weight ([2]; rat Spleen): 0.501 gm | Organ Weight ([2]; rat Stomach): 1.766 gm | Appetite of the animal [3]: reduced | IC50 [4]: 454 µM
